From ChEMBL document CHEMBL1135027, “Tyrosylprotein sulfotransferase inhibitors generated by combinatorial target-guided ligand assembly” (Bioorg Med Chem Lett, 2002)
pIC50: −log10 of the molar value. Blank lines part the entries; values can stand above or below the compound they belong to.

Columns and labels:
[1] = target: T1, Protein-tyrosine sulfotransferase 2 (Homo sapiens, UniProt O60704); experiment: Displacement of [35S]PAPS from human tyrosylprotein sulfotransferase-2 (hTPST-2); design: concentration or dose not given beside the values
T1 sequence (O60704 whole entry): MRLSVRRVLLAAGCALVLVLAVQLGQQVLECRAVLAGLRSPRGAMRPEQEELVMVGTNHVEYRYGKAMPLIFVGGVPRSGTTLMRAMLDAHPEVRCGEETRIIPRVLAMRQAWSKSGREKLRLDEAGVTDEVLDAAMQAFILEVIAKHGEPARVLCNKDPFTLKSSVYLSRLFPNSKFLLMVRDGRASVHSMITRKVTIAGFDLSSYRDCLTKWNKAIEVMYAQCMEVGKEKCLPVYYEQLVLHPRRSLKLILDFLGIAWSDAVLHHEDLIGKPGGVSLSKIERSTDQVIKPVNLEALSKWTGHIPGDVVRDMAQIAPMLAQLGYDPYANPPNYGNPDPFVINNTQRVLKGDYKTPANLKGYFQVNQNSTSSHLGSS

[2] = Inhibitory activity of compound was determined against bacterial GlcNAc-6-sulfotransferase (NodST) at 100 uM
[3] = target: T1, Protein-tyrosine sulfotransferase 2; experiment: Compound was tested for reversible inhibition of human tyrosylprotein sulfotransferase-2 (hTPST-2) at 40 uM for 5 hours and dialyzed
[4] = target: T1, Protein-tyrosine sulfotransferase 2; experiment: Inhibitory activity of compound was determined against human tyrosylprotein sulfotransferase-2 (hTPST-2) using [35S]PAPS radioligand
[5] = target: T2, Carbohydrate sulfotransferase 4 (Homo sapiens) (UniProt Q8NCG5); experiment: Inhibitory activity of compound was determined against human high endothelial cell (HEC) GlcNAc-6-ST sulfotransferase at 100 uM; format: cell-based
T2 sequence (whole entry): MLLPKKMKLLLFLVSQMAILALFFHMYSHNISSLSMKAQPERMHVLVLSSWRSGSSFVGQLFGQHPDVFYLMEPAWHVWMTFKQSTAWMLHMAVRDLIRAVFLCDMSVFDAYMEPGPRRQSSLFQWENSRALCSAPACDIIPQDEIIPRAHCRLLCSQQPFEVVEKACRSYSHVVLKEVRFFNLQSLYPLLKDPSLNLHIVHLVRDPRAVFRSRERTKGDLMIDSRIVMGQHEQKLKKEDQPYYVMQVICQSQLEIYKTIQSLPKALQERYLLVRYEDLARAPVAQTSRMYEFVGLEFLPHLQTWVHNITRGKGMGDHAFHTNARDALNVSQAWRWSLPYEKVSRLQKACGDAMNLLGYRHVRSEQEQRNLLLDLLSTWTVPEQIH

[6] = target: T3, estrogen sulfotransferase (Sulfotransferase 1E1) (Homo sapiens, UniProt P49888); experiment: Inhibitory activity of compound was determined against human estrogen sulfotransferase at 100 uM
T3 sequence (P49888 whole entry): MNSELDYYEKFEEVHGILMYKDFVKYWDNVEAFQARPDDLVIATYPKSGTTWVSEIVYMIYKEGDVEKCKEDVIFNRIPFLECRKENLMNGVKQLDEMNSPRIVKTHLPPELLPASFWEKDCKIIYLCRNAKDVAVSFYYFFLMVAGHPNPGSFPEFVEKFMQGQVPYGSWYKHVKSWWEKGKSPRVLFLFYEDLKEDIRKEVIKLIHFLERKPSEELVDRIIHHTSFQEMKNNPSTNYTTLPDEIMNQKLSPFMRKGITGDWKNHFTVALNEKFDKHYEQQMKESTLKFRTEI

[7] = target: T4, Sulfotransferase 1E1 (Homo sapiens, UniProt P49888); experiment: Compound was tested for inhibition against estrogen sulfotransferase (EST), a human cytosolic sulfotransferase.
T4 sequence (P49888 whole entry): T3 sequence (P49888 whole entry)

[8] = target: T4, Sulfotransferase 1E1; experiment: Compound was tested for inhibition against estrogen sulfotransferase (EST), a human cytosolic sulfotransferase
[9] = target: T1, Protein-tyrosine sulfotransferase 2; experiment: Compound was tested for reversible inhibition of human tyrosylprotein sulfotransferase-2 (hTPST-2) at 40 uM for 5 hours and dialyzed; complete reversible inhibition observed.
[10] = target: T3, estrogen sulfotransferase (Sulfotransferase 1E1); experiment: Inhibitory activity of compound was determined against estrogen sulfotransferase at 100 uM
[11] = target: T1, Protein-tyrosine sulfotransferase 2; experiment: Inhibitory activity of compound was determined against human tyrosylprotein sulfotransferase-2 (hTPST-2) using [35S]PAPS radioligand at 800 uM

Compound: CO/N=C/c1ccc([N+](=O)[O-])s1
- Inhibition [1]: 65%

Compound: CO/N=C/C(C)=C/c1ccco1
- Inhibition [1]: 59%

Compound: CO/N=C/c1cc(OC)c(O)c(OC)c1
- Inhibition [1]: 37%

Compound: CO/N=C/c1cc(Br)c(O)c(Br)c1
- pIC50 [4]: 3.37

Compound: CO/N=C/c1c(O)ccc2ccccc12
- Inhibition [1]: 34%

Compound: CO/N=C/C=C/c1ccc([N+](=O)[O-])o1
- Inhibition [1]: 47%

Compound: CO/N=C/c1cc(I)c(O)c(OC)c1
- Inhibition [1]: 53%

Compound: CO/N=C/C(=C/c1ccco1)c1ccccc1
- Inhibition [1]: 55%

Second part, the compound after the results:

- inhibition [2]: 19%
- inhibition at 40 µM [3]: 50%
- pIC50 [4]: 4.40
- inhibition [5]: 7%
- inhibition at 100 µM [6]: 100%
- pIC50 [7]: 5.52
Compound: O=c1c(/C=N/OCCCCCO/N=C/c2cc(Br)cc([N+](=O)[O-])c2O)coc2c(Cl)cc(Cl)cc12

- Inhibition [1]: 48%
Compound: CO/N=C/c1cc(I)cc(I)c1O

- Inhibition [1]: 35%
Compound: CO/N=C/c1coc2cc(C)c(C)cc2c1=O

- inhibition [2]: 66%
- pIC50 [4]: 4.52
- inhibition [5]: 30%
- pIC50 [8]: 6.60
- Inhibition [9]: complete reversible inhibition observed
- inhibition at 100 µM [10]: 100%
Compound: O=c1c(/C=N/OCCCCCO/N=C/c2cc(Br)c(O)c(Br)c2)coc2c(Cl)cc(Cl)cc12

- Inhibition [1]: 70%
Compound: CO/N=C/c1ccc(-c2ccc(Cl)cc2)o1

- Inhibition [1]: 31%
Compound: CO/N=C/c1cc(C)cc(Br)c1O

- pIC50 [4]: < 3.00
Compound: CO/N=C/c1cc(Br)cc([N+](=O)[O-])c1O

- Inhibition [1]: 45%
Compound: CO/N=C/c1c(N)oc2ccccc2c1=O

- Inhibition [1]: 50%
Compound: CO/N=C/c1ccc(-c2cccc(Cl)c2)o1

- inhibition at 800 µM [11]: 40%
- pIC50 [4]: < 3.00
Compound: CO/N=C/c1coc2c(Cl)cc(Cl)cc2c1=O

- Inhibition [1]: 85%
Compound: CO/N=C/c1coc2ccc(Br)cc2c1=O

- Inhibition [1]: 25%
Compound: CO/N=C/c1cccc(F)c1O
